Numbers after ± are expanded uncertainties.
Experiments:
[1] = 303.15 K; 101.33 kPa; Liquid; Vibrating tube method
[2] = refractive index (Na D-line) (dimensionless); settings: 303.15 K; 101.33 kPa; Liquid; Standard Abbe refractometry

| mass density [1] [kg/m3] | refractive index [2] | SMILES |
| --- | --- | --- |
| 849.19 ± 1 | 1.40283 ± 0.0011 | CCCC(=O)OC(C)CCC (configuration not stated) [1-methylbutyl butanoate] |
| 948.44 ± 1 | 1.39394 ± 0.0011 | CCCC(=O)O [butanoic acid] |
| 800.09 ± 2.1 | 1.40216 ± 0.0021 | CCCC(C)O (configuration not stated) [pentan-2-ol] |
| 888.65 ± 1 | 1.40494 ± 0.0011 | C=COC(=O)CCC [vinyl butanoate] |

| SMILES | mass density [1] [kg/m3] | refractive index [2] |
| --- | --- | --- |
| CCCCCC[n+]1ccn(C)c1.O=S(=O)([N-]S(=O)(=O)C(F)(F)F)C(F)(F)F | 1367.17 ± 1.1 | 1.42851 ± 0.0011 |
| CCn1cc[n+](C)c1.O=S(=O)([N-]S(=O)(=O)C(F)(F)F)C(F)(F)F | 1513.74 ± 1.2 | 1.42162 ± 0.0011 |
